Numbering of substitutions follows the chain as printed. Names may count otherwise. “Also recorded” adds a separate entry of the source.
T1: CaSR (wildtype) (Homo sapiens, UniProt P41180)
T1 construct: expressed in transfected cells; host or cells: HEK293
T1 sequence (P41180 20-1078): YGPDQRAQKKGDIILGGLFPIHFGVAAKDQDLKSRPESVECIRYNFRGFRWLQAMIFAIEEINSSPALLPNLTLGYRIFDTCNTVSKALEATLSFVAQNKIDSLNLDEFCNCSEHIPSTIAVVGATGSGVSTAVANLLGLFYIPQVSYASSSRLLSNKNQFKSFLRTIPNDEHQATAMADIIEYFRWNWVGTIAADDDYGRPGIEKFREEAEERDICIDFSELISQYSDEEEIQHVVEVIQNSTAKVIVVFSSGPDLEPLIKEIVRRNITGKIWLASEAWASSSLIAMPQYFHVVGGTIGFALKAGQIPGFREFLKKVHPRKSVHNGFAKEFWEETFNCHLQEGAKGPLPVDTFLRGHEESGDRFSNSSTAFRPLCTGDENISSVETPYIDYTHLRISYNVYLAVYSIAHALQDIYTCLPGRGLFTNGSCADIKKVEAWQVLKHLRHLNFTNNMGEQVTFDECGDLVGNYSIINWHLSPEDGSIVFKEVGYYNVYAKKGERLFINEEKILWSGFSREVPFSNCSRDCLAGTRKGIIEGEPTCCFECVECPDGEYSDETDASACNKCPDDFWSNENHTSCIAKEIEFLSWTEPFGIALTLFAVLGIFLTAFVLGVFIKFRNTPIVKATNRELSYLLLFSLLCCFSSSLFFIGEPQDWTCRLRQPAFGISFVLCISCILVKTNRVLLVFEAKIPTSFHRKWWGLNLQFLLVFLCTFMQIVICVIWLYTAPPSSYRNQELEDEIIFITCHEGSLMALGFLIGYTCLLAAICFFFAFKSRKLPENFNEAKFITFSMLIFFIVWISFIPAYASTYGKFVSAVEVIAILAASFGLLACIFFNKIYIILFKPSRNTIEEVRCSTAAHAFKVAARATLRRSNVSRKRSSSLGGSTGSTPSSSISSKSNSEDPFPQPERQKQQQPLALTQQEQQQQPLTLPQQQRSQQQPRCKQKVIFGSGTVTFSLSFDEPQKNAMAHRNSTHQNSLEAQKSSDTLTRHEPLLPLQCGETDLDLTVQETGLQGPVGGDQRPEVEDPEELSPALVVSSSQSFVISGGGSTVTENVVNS

T2: CaSR E297K (Homo sapiens, UniProt P41180, E297K)
T2 construct: expressed in transfected cells; host or cells: HEK293
T2 sequence (P41180 20-1078 E297K): T1 sequence (P41180 20-1078) with E278K

B1: MCD1: mCherry A145E/S147E/N196D/K198D/R216E, best mCherry-based variant, SEQ ID NO: 32 (protein)
chain: EEDNMAIIKEFMRFKVHMEGSVNGHEFEIEGEGEGRPYEGTQTAKLKVTKGGPLPFAWDILSPQFMYGSKAYVKHPADIPDYLKLSFPEGFKWERVMNFEDGGVVTVTQDSSLQDGEFIYKVKLRGTNFPSDGPVMQKKTMGWEESEERMYPEDGALKGEIKQRLKLKDGGHYDAEVKTTYKAKKPVQLPGAYNVDIDLDITSHNEDYTIVEQYEEAEGRHSTGGMDELYK

Columns and labels:
[1] = biological target: T1, CaSR (wildtype); assay: Epifluorescence imaging of CaSR mediated ER Ca^2+ dynamics using R-CatchER and Fura-2 in HEK293 cells; type: cell-based; details: for effect on cytosolic and ER Ca^2+ oscillations: Tg 3 μM, 2-APB 100 μM, ionomycin 20 μM with 10 mM Ca^2+; for effect on frequency of ER Ca^2+ oscillations: in the presence of Ca^2+, HEK293 CaSR
Experimental: (§1) Cell culture and transfection. C2C12, HEK293 and HeLa cells were cultured and maintained in Dulbecco's modified Eagle's medium (DMEM) supplemented with 10% fetal bovine serum (FBS) and high glucose (4.5 g/L) at 37° C. R-CatchER, G-CatchER2, G-CEPIA1er, R-CEPIA1er or R-CatchER with GFP-CaSR (wt and mutations) were transfected into cells using Lipofectamine 3000 (Life Technologies), following the manufacturer's instructions. Seed cells onto sterilized 22 mm×40 mm glass microscope slides in 6 cm dishes until about 70% confluency, the day of transfection. The next day, 2 μg of plasmid were mixed with transfection reagent in the reduced serum media Opti-MEM for 4-6 h at 37° C. The media was then replaced with 3 mL of fresh DMEM and incubated at 37° C. for 48 h.
(§2) Epifluorescence imaging of class C GPCR mediated ER Ca^2+ dynamics using R-CatchER and Fura-2. HEK293 Cells transfected with R-CatchER and GFP-CaSR (wt and mutations) were incubated with Fura-2 for 30 mins at 37° C. then washed with 2 mL of physiological Ringer buffer (10 mM HEPES, 140 mM NaCl, 5 mM KCl, 1.2 mM MgCl2, 1.8 mM CaCl2) at pH 7.4). The coverslips were mounted on a bath chamber and placed on the stage of a Leica DM6100B inverted microscope with a Hamamatsu cooled EM-CCD camera and illuminated with a Till Polychrome V Xenon lamp. Cells were illuminated at 340 nm, 380 nm and 569 nm, in real-time, as cells were exposed to different concentrations of Ca^2+, cinacalcet, Phe, TNCA, or NPS2143.

[2] = biological target: T2, CaSR E297K; assay: Epifluorescence imaging of CaSR mediated ER Ca^2+ dynamics using R-CatchER, E297K mutant; type: cell-based; details: E297K mutant with TNCA (500 μM)
Experimental: as §1
as §2, with “Cells were illuminated at 340 nm, 380 nm and 569 nm, in real-time, as cells were exposed to different concentrations of Ca^2+, cinacalcet, Phe, TNCA, or NPS2143.” left out

[3] = In vitro kinetics by stopped flow spectrofluorometer; type: binding; details: stopped-flow, dead time 2.2 ms, 20° C.
Experimental: In vitro kinetics by stopped flow spectrofluorometer. The kinetics were determined by a Hi-Tech SF-61 stopped-flow spectrofluorometer equipped with the mercury-Xe lamp (10 mm path length, dead time of 2.2 ms) at 20° C. For R-CatchER and its variant or R-CEPIA1er, excitation was at 569 nm and a long-pass 590 nm filter was used. For G-CEPIA1er, a 530 nm long-pass filter was set with excitation at 498 nm, while for MCD1, excitation at 587 nm and a long-pass 600 nm filter were applied. For association kinetics, R-CatchER, R-CatchER variant, MCD1, R-CEPIA1er, and G-CEPIA1er were mixed with the same buffer containing an increasing concentration of Ca^2+. For disassociation kinetics, R-CatchER, R-CatchER variant, MCD1, R-CEPIA1er, and G-CEPIA1er in buffers with concentration of Ca^2+ at Kd, were mixed with 5 mM EGTA or buffer. The raw data were fitted using either single exponential for R-CatchER, R-CatchER variant, and MCD1, or double exponential equations for R-CEPIA1er and G-CEPIA1er.

[4] = pKa determination of the chromophore; type: physicochemical
Experimental: pKa determination. To measure the chromophore pKa of mApple, EGFP, and mCherry variants, the proteins were prepared in buffers (sodium acetate buffer for pH 3-5, MES buffer for pH 5-6, HEPES buffer for pH 6.5-8, TRIS buffer for pH 8.5-9) covering a pH range from 3 to 10. All samples were Incubated at 4° C. overnight, then the following day, the absorbance and fluorescence spectra were collected using a Shimadzu UV-1601 spectrophotometer and the Spectrofluorimeter.

[5] = Calcium (Ca^2+) binding assay: fluorescence/absorbance titration of purified protein; details: mCherry based indicators, Ca^2+ induced fluorescence change
Experimental: Calcium (Ca^2+) binding assay. 10 μM protein samples of mApple, EGFP, and mCherry variants were titrated with different concentrations of Ca^2+. Data were fitted with a 1:1 binding equation. Fluorescence intensities were collected using a Spectrofluorimeter (Photon Technology International, Inc.) and the absorbance values of Ca^2+-free and Ca^2+-loaded forms were determined using a Shimadzu UV-1601 spectrophotome.
Ca^2+ binding assay. Fluorescence measurements of mApple variants with increasing Ca^2+ concentrations were done in order to obtain the affinity of the sensor for Ca^2+ in vitro. Samples of 10 μM mApple variants with 5 μM EGTA were prepared in triplicate in 1 mL volumes in 10 mM Tris, pH 7.4. The samples were placed in quartz fluorescence cuvettes, and metal ion was titrated into each sample, in a stepwise manner, using 0.1 M and 1 M metal stock solutions. The fluorescence response of the indicator to increasing Ca^2+ concentrations was monitored using a fluorescence spectrophotometer (Photon Technology International, Canada) with the Felix32 fluorescence analysis software. The absorbance spectra before and after titration were obtained using a Shimadzu UV-1601 spectrophotometer.

Row | Molecule | effect on cytosolic and ER Ca^2+ oscillations [1] | effect on frequency of ER Ca^2+ oscillations ([1]; R-CatchER) | other results
1 | NCCOB(c1ccccc1)c1ccccc1 [2-APB, 2-Aminoethoxydiphenyl borate] | eliminated; also recorded: elimination | – | –
2 | C[C@@H](NCCCc1cccc(C(F)(F)F)c1)c1cccc2ccccc12 [Cinacalcet] | – | increased the frequency | –
3 | N[C@@H](Cc1ccccc1)C(=O)O [L-Phe] | – | increased the frequency | Ca^2+ release from the ER, area under the curve (AUC) ([1]; 5 mM L-Phe alone, R-CatchER): 19.54±1.08; EC50 ([1]; in the presence of L-Phe, read out with R-CatchER, read-out: EC50 of ER Ca^2+ mobilization by extracellular Ca^2+): 2700 ± 100 µM
4 | CC(C)(Cc1ccc2ccccc2c1)NC[C@@H](O)COc1cccc(Cl)c1C#N [NPS2143] | – | decreased the frequency | –
5 | O=C(O)[C@@H]1Cc2c([nH]c3ccccc23)CN1 [TNCA, L-1,2,3,4-tetrahydronorharman-3-carboxylic acid] | – | increased the frequency | Hill coefficient (cooperativity) [2]: 3.08±0.40
6 | C/C=C(/C)C(=O)O[C@H]1C(C)=C2[C@H]([C@@H]1OC(=O)CCCCCCC)[C@@](C)(OC(C)=O)C[C@H](OC(=O)CCC)[C@@]1(O)[C@H]2OC(=O)[C@@]1(C)O [Tg, Thapsigargin] | eliminated; also recorded: elimination | – | –
7 | C[C@H](CCC(=O)O)C[C@H](C)C[C@H](C)C(=O)/C=C(\O)[C@H](C)C[C@H](C)C/C=C/[C@@H](C)[C@@H](O)[C@@H](C)[C@@H](O)C[C@@H]1CC[C@@](C)([C@H]2CC[C@@](C)([C@@H](C)O)O2)O1 [ionomycin] | eliminated; also recorded: abolished | – | –
8 | B1 | – | – | Ca^2+ association rate kon [3]: ≥ 3e+07 M⁻¹ s⁻¹; apparent pKa ([4]; 0 mM Ca^2+): 4.31±0.01; apparent pKa ([4]; 10 mM Ca^2+): 4.30±0.01; Fmax/Fmin [5]: 1.13 ± 0.01

Source: patent US20240369485A1, “FLUORESCENT SENSOR FOR MONITORING CALCIUM DYNAMICS” (priority 2021, published 2024)
